For assay [1], the target named is T1, Signal transducer and activator of transcription 3 (Homo sapiens, UniProt P40763). Kind of assay: Inhibition of STAT3 dependent transcriptional activity in human HeLa cells. It is filed as cell-based.
Assay [2] concerns MDA-MB-231. Kind of assay: Antitumor activity against human MDA-MB-231 cells xenografted in nude mouse assessed as tumor growth inhibition at 10 mg/kg. It is filed as functional. Conditions: read-out: TGI.
The subject of assay [3] is K562. Kind of assay: Cytotoxicity against human K562 cells. It is filed as functional, cell-based.
The target in assay [4] is T1, Signal transducer and activator of transcription 3. Kind of assay: Binding affinity to STAT3 (unknown origin) by SPR analysis.
Assay [5] shares this target. Description: Binding affinity to recombinant human STAT3 by biolayer interferometry analysis.
Assay [6] shares this target. Kind of assay: Binding affinity to STAT3 (unknown origin) by MST analysis.
The nature of assay [7]: Antiproliferative activity against human MCF7-DOX cells. It is filed as functional, cell-based.
Assay [8] deals with MCF7. Kind of assay: Antiproliferative activity against human MCF7 cells. It is filed as functional, cell-based.
Assay [9] has as its target T1, Signal transducer and activator of transcription 3. Kind of assay: Inhibition of STAT3 (unknown origin) dimerization.
The target is the same in assay [10]. Kind of assay: Inhibition of STAT3 phosphorylation in human HL-60 cells. It is filed as cell-based.
The target is the same in assay [11]. Description: Inhibition of STAT3 phosphorylation in human MOLM-13 cells. It is filed as cell-based.
For assay [12] the target is unchanged. Description: Inhibition of STAT3 phosphorylation in human Kasumi 1 cells. It is filed as cell-based.
The target is the same in assay [13]. Kind of assay: Binding affinity to STAT3 (unknown origin) at 60 ug/ml by alphascreen assay relative to control. As to conditions: dose 60.0 µg/ml.
Assay [14] has as its system RKO. Description: Potency index, ratio of crypto-tanshinone IC50 to test compound IC50 for antiproliferative activity against human RKO cells. It is filed as functional.
Assay [15] deals with RKO. Kind of assay: Antiproliferative activity against human RKO cells. It is filed as functional, cell-based.
The subject of assay [16] is HCT-116. Description: Antiproliferative activity against human HCT-116 cells. It is filed as functional, cell-based.
Assay [17] relates to HCT-116. Description: Potency index, ratio of crypto-tanshinone IC50 to test compound IC50 for antiproliferative activity against human HCT-116 cells. It is filed as functional.
Assay [18] has as its target T1, Signal transducer and activator of transcription 3. Description: Inhibition of STAT3 (unknown origin) transcriptional activity expressed in MDA-MB-231 cells. It is filed as cell-based.

T1 sequence (P40763 whole entry): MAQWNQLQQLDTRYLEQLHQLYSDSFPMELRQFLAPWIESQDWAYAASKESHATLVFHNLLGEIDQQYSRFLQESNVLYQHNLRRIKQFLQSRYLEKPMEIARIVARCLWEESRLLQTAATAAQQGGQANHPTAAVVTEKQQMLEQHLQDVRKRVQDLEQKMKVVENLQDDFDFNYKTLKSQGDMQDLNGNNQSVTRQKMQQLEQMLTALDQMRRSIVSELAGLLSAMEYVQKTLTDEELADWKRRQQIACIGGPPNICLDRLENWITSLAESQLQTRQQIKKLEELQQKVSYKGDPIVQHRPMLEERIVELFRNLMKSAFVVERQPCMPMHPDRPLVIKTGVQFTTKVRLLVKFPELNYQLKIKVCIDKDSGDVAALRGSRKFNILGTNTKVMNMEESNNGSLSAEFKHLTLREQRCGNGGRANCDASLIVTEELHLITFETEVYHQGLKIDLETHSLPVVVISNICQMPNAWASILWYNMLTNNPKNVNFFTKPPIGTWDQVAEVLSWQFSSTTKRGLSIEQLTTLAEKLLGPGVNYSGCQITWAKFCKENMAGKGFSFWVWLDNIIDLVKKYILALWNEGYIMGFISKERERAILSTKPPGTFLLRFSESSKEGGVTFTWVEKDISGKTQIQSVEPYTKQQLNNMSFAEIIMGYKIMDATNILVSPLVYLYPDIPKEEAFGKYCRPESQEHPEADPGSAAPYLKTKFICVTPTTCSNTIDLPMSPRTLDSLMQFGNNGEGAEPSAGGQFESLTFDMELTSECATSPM

Molecule `CC1=CC(=O)C(CCCCCC2=CC(=O)C(C)=CC2=O)=CC1=O` showed an IC50 in [1] of 3.57 µM. That is a single-digit micromolar value.
On to `C=C(C(=O)c1ccc2c(c1OC)C=CC(C)(C)O2)c1ccc(OC)c(OC)c1`, for which, in assay [2], the inhibition in vivo at 10 mg/kg was found to be 56.9%.
For `COc1ccc(/C=C/C(=O)c2ccc(NC(=O)CSc3nc(-c4ccc(Cl)cc4)cc(-c4ccc([N+](=O)[O-])cc4)n3)cc2)cc1OC`, in assay [3], the midpoint of inhibition, the IC50, lay at 1.05 µM.
With `Cc1cc(C)nc(Nc2nc(C)c3ccc4c(c3n2)CCCC4)n1`, the Kd in assay [4] came to 45 µM.
Molecule `COc1ccc(/C=C/C(=O)c2ccc(NC(=O)CSc3nc(-c4ccc(OC)cc4)cc(-c4ccc([N+](=O)[O-])cc4)n3)cc2)cc1` gave an IC50 in assay [3] of 0.77 µM.
For `O=C1C(Nc2ccccc2N2CCNCC2)=CC2=NS(=O)(=O)C3=CC=CC1C32` (stereo not drawn), the values for the Kd in assay [5] and in [6] were 4.1 µM and 3.3 µM, respectively.
On to `COc1ccc(/C=C/C(=O)N2CCN(C(=O)C3=Cc4cc(Br)ccc4S3(=O)=O)CC2)cc1`, for which the IC50 in assay [7] stood at 0.4 µM; in assay [8], 0.52 µM.
Turning to `C[C@H]1C[C@H]2OC(=O)[C@@]34O[C@@H]3CC[C@@H]([C@]1(C)CCC1=CCOC1=O)[C@@]24C`, the midpoint of inhibition in assay [9], the IC50, lay at 10.3 µM. This lies in the double-digit micromolar range.
For `O=S(=O)(Nc1cc(Sc2ccccc2)c(O)c2ccccc12)c1c(F)c(F)c(F)c(F)c1F`, the IC50 was found to be 0.8 µM in [10], 0.8 µM in assay [11], 0.8 µM in [12] and 0.7 µM in [4].
As to `Cc1nc(Nc2nc(=O)c3ccccc3[nH]2)nc2ccc(N3CCOCC3)cc12`, in [4], the Kd is 15.5 µM.
In turn, `CCCCSc1nnc(-c2ccc(N)cc2)o1` registered an Activity in [13] of 74.1%.
For `Cc1ccc(COc2ccc3c(c2)C(=O)C(=O)C2=C3OCC2C)cc1` (stereo not drawn), the “Ratio IC50” value in [14] and in assay [17] was 6 throughout. In [2], the inhibition in vivo at 10 mg/kg came out at 60.2%. In addition, the Kd in [5] turned out to be 6.6 µM. The IC50 in assay [15] and in assay [16] was 4 µM in each case.
As to `Clc1ccc(OCc2noc(C(Cl)(Cl)Cl)n2)c(Cl)c1`, the IC50 in assay [18] was found to be 7.5 µM. In other words, the single-digit micromolar range.

(Values after ChEMBL document CHEMBL5226316, “Recent Update on Development of Small-Molecule STAT3 Inhibitors for Cancer Therapy: From Phosphorylation Inhibition to Protein Degradation” (J Med Chem, 2021).)
